Legend:
[1] = tested on: macrophage-polarised primary bone marrow derived monocytes; assay: eGFP mRNA transfection of macrophage-polarised primary mouse bone marrow derived monocytes, flow cytometry; format: cell-based; details: GSCG1,2-RHL NP=0.6:1, GSCG1,2-RL, 3-LR NP=0.16:1, GSCG1,RL, 2-LR NP=8:1, DOTMA:DOPE w/w 10:1, lipid-only DOTMA/DOPE w/w 3.2:1, FIG. 2
Procedure: BMDM cells were isolated using the StemCell Tech EasySep Mouse Monocyte Isolation Kit from mouse bone marrow cell suspension. The cells were resuspended in complete medium (DMEM+1% glutamax+10% heat inactivated FBS+1% Pen/Strep) enriched with 50 ng/ml murine M-CSF (1:1000 of 50 μg/ml stock) at 1E+6 cells/mi. 2 million cells (i.e. 2 mL) was seeded in each well of 6-well plate(s). The plate was incubated at 37° C. for 4 days. Half media exchange was performed using complete media enriched with […] murine M-CSF and 40 ng/ml murine IL-4. Cells were then harvested the next day (day 5) by washing cells with PBS and a 10 minute incubation with 5 mM EDTA (diluted in PBS) at 37° C. followed by plate tapping and resuspension. […]
Data were collected using a BD LSRFortessa I analyser running […] software (Beckton Dickinson). All collected data were analysed using FlowJo 10.0 software.
Transfection efficiency of macrophage-polarised primary bone marrow derived monocytes using various peptide dendrimer/lipid nanoparticles was assessed and compared to lipid-only nanoparticles (LPX-RNA). Each nanoparticle, with or without dendrimer, included eGFP mRNA to allow analysis of absolute numbers of cells transfected to be assessed by flow cytometry. […]

[2] = Dynamic light scattering: hydrodynamic size and polydispersity index (PDI) of nanoparticles; format: physicochemical
Procedure, shortened: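 Hydrodynamic size measured by DLS (Stokes-Einstein), PDI from cumulants fit per ISO 13321/22412. Samples diluted 16× in 25 mM HEPES, water as dispersant, 25° C; PDI measured on dendrimer:nucleic acid 8:1 nanoparticles.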

[3] = GSCG1,2-RHL N:P=0.6:1, DOTMA:DOPE, coated with GSGGSGGSCG1-EEEE, with/without CpG (mRNA:CpG w/w 9:1)
[4] = GSCG1,2-RHL and DOTMA:DOPE nanoparticles, 150 ug/mL mRNA, 40× dilution in 25 mM HEPES buffer
[5] = mRNA, N:P 0.6:1, DOTMA:DOPE w/w 10:1, with or without 3 equivalents G1-EEEE with mannose coating

- Hydrodynamic size [2, 3]: 174 nm
- PDI [2, 3]: 0.17
- DLS measurement, Pdl [2, 4]: 0.13
- DLS measurement, size [2, 4]: 184 nm
- PDI [2, 5]: 0.1776
- size [2, 5]: 149.5 nm
Substance: (RHL)4(KRHL)2KGSC-NH2 [GSCG1,2-RHL]
- transfection efficiency [1]: approximately 35%
